Experimental data taken from article PMC4763008, “Selective Inhibition of Bakuchicin Isolated from Psoralea corylifolia on CYP1A in Human Liver Microsomes” (Evidence-based Complementary and Alternative Medicine : eCAM, 2016).
“Also recorded” adds a separate entry of the source. Like-named read-outs stand apart in the source and are kept apart here.

Assays:
[1] = biological target: T1, CYP1A2 (Homo sapiens, UniProt P05177); assay: CYP inhibition, cocktail of probe substrates in pooled human liver microsomes: phenacetin O-deethylation; type: in vitro ADME; settings: for IC50: pooled HLMs, substrate 80 μM
T1 construct: tissue Corning Gentest BD UltraPool HLM 150; host or cells: pooled human liver microsomes
T1 sequence (P05177 1-516): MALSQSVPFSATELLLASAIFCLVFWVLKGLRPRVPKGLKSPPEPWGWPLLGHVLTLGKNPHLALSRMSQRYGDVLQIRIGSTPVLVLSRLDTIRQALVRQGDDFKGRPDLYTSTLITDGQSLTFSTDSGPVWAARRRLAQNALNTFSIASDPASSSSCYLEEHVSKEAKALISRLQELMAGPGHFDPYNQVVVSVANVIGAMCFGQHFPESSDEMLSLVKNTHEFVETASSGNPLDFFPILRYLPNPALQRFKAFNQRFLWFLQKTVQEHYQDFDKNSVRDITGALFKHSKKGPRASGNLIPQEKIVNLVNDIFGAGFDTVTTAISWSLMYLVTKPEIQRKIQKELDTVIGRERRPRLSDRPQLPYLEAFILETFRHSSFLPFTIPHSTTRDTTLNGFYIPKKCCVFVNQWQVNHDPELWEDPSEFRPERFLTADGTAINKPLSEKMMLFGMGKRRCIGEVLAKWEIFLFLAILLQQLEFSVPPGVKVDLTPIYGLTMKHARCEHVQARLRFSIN
Method: (§1) All incubations were performed in duplicate, and data are presented as means. Briefly, each reaction was performed with 0.5 mg/mL pooled human liver microsomes in a final incubation volume of 0.1 mL. The incubation medium consisted of 0.1 M potassium phosphate buffer (pH 7.4) containing cocktail of probe substrates and a NADPH-generating system (NGS) of 0.1 M glucose 6-phosphate, 10 mg/mL β-NADPH, and 1.0 U/mL glucose-6-phosphate dehydrogenase. To investigate the IC50 of bakuchicin during CYP1A inhibition, bakuchicin (at final concentrations of 0–25 μM) was incubated without preincubation. In addition, the mixture with bakuchicin was preincubated for 15 min without the probe substrate cocktail in the presence or absence of 1 mM β-NADPH. After the reaction was initiated by adding the NGS for 60 min, incubated samples were terminated by adding 100 μL acetonitrile containing 0.1% formic acid and 2.5 μL of internal standard solution (5 μM reserpine) in methanol. After mixing and centrifuging at 13,000 ×g for 12 min, a 5 μL aliquot was injected onto a C18 column for LC-MS/MS analysis.
(§2) All measurements were performed using LC-MS/MS in multiple reaction monitoring mode. LC-MS/MS was performed using an Accela™ LC system coupled to a TSQ Vantage triple quadrupole mass spectrometer (Thermo Fisher Scientific Inc., USA) equipped with a HESI-II Spray source. Electrospray ionization was performed in positive mode at a spray voltage of 3,500 V (except for the detection of 6-hydroxy chlorzoxazone). Nitrogen was used as a sheath and auxiliary gas at optimum values of 45 and 20 (arbitrary units), respectively. Vaporizer and capillary temperatures were 150 and 300°C, respectively. For LC analysis an Inertsil® ODS-2 (3 μm, 2.1 × 150 mm) column (GL Sciences Inc., Torrance, CA) was used. The mobile phase consisted of acetonitrile (mobile phase A) and water (mobile phase B), both of which contained 0.1% formic acid, at a flow rate of 0.22 mL/min at 30°C.
(§3) All incubations were performed in duplicate, and data are presented as means. IC50 values (the concentration of inhibitor causing a 50% inhibition in enzyme activity) were obtained using percent activity versus log[I] concentration plots. Kinetic parameters were estimated by curve fitting using SigmaPlot (version 12.0, Systat Software, Inc.).

[2] = biological target: T2, CYP2C8 (Homo sapiens, UniProt P10632); assay: CYP inhibition, cocktail of probe substrates in pooled human liver microsomes: paclitaxel hydroxylation; type: in vitro ADME; settings: pooled HLMs, substrate 10 μM
T2 construct: each reaction was performed with 0.5 mg/mL pooled human liver microsomes; tissue Corning Gentest BD UltraPool HLM 150; host or cells: pooled human liver microsomes
T2 sequence (P10632 1-490): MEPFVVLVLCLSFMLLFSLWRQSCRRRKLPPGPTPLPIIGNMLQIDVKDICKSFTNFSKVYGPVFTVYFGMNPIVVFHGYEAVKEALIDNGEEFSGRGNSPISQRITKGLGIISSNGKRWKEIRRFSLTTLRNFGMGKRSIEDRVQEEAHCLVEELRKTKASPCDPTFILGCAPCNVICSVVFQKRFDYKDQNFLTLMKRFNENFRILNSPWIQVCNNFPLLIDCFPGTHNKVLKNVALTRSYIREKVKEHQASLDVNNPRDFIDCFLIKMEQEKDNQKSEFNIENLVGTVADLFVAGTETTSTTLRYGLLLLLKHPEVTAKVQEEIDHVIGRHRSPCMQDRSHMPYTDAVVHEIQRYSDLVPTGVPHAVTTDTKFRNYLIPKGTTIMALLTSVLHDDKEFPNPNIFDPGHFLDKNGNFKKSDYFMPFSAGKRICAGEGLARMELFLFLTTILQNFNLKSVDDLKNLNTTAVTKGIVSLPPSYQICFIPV

[3] = biological target: T3, CYP2C9 (Homo sapiens, UniProt P11712); assay: CYP inhibition, cocktail of probe substrates in pooled human liver microsomes: diclofenac 4'-hydroxylation; type: in vitro ADME; settings: pooled HLMs, substrate 10 μM
T3 construct: each reaction was performed with 0.5 mg/mL pooled human liver microsomes; tissue Corning Gentest BD UltraPool HLM 150; host or cells: pooled human liver microsomes
T3 sequence (P11712 whole entry): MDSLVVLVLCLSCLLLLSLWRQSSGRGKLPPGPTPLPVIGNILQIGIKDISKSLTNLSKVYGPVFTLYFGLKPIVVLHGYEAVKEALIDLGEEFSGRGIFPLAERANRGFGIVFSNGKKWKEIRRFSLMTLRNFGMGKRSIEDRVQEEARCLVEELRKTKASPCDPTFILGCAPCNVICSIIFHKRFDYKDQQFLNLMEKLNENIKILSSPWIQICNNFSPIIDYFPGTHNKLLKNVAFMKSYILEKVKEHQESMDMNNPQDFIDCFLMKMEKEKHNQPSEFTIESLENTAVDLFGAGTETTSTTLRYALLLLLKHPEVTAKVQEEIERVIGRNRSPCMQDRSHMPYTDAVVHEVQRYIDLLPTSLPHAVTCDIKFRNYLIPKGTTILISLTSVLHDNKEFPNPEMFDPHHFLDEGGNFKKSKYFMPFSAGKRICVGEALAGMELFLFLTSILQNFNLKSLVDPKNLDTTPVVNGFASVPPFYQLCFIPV

[4] = biological target: T4, CYP2E1 (Homo sapiens, UniProt P05181); assay: CYP inhibition, cocktail of probe substrates in pooled human liver microsomes: chlorzoxazone 6-hydroxylation; type: in vitro ADME; settings: pooled HLMs, substrate 50 μM
T4 construct: tissue Corning Gentest BD UltraPool HLM 150; host or cells: pooled human liver microsomes
T4 sequence (P05181 whole entry): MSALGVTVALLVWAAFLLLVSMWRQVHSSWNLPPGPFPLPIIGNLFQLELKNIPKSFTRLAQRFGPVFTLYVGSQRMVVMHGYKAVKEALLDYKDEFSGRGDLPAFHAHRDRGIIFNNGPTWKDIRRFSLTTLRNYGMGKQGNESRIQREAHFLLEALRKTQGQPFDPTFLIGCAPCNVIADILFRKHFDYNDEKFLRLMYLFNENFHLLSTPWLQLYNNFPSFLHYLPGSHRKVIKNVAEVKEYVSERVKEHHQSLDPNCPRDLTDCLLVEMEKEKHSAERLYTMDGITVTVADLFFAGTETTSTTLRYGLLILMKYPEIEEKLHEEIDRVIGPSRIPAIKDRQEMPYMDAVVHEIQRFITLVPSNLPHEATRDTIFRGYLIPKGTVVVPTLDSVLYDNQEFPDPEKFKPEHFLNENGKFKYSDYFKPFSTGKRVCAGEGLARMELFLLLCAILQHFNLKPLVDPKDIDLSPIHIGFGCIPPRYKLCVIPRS
Method: as §1, §2
All incubations were performed in duplicate, and data are presented as means. […]

[5] = biological target: T5, human recombinant cDNA-expressed CYP1A2 (Homo sapiens, UniProt P05177); assay: Inhibition of phenacetin O-deethylation by human recombinant cDNA-expressed CYP1A2; type: biochemical
T5 construct: purchased Corning Gentest (Woburn, MA)
T5 sequence (P05177 1-516): T1 sequence (P05177 1-516)
Method: To confirm the selective inhibition of CYP1A by bakuchicin, 10 pmol of human recombinant cDNA-expressed CYP1A1 and CYP1A2 was incubated with bakuchicin at 0.1–50 μM and NGS for 60 min at 37°C after the addition of 80 μM phenacetin as a selective CYP1A substrate. Those were terminated by adding 100 μL acetonitrile containing 0.1% formic acid and 2.5 μL of internal standard solution (5 μM reserpine) in methanol. After mixing and centrifuging at 13,000 ×g for 12 min, a 5 μL aliquot was injected onto a C18 column for LC-MS/MS analysis. CYP1A1 and CYP1A2 activities were determined by phenacetin O-deethylation. The inhibition patterns of bakuchicin on CYP1A in human recombinant cDNA-expressed CYP1A1 and CYP1A2 were confirmed by Michaelis-Menten and secondary plot.
as §2, §3

[6] = 15 min preincubation with NADPH, read-out: IC50 With preincubation with NADPH
[7] = 15 min preincubation without NADPH, read-out: IC50 With preincubation Without NADPH
[8] = without preincubation, read-out: IC50 Without preincubation

time dependence of CYP1A inhibition ([1]; HLMs, preincubation time 0-20 min at 37°C): not time-dependent inhibition | IC50 [1, 6]: 220 nM | IC50 [1, 7]: 220 nM | IC50 [1, 8]: 430 nM | IC50 [2, 6]: > 100000 nM | IC50 [2, 7]: > 100000 nM | IC50 [2, 8]: > 100000 nM | IC50 [3, 6]: > 100000 nM | IC50 [3, 7]: > 100000 nM | IC50 [3, 8]: > 100000 nM | IC50 [4, 6]: > 100000 nM | IC50 [4, 7]: > 100000 nM | IC50 [4, 8]: > 100000 nM | IC50 ([5]; recombinant CYP1A2, 80 μM phenacetin, 60 min, read-out: IC50, CYP1A2-catalyzed phenacetin O-deethylase activity): 1400 nM | Ki ([5]; recombinant CYP1A2, phenacetin 20, 40, 80 μM, 60 min, read-out: Ki on CYP1A2 (secondary plot)): 320 nM | Ki on CYP1A2 relative to Ki on CYP1A1 ([5]; recombinant enzymes): 3 fold | IC50 for CYP1A2 relative to CYP1A1 ([5]; recombinant enzymes, CYP1A2 IC50 higher than CYP1A1 IC50): 7 fold
Compound: O=c1ccc2c(ccc3ccoc32)o1 [Bakuchicin]
inhibition mode on CYP1A2 ([5]; recombinant CYP1A2, Lineweaver-Burk plot): competitive inhibitor; also recorded: competitive inhibition
